{
  "source": "paper PMC6988309",
  "about": "“Preclinical efficacy for a novel tyrosine kinase inhibitor, ArQule 531 against acute myeloid leukemia” (Journal of Hematology & Oncology, 2020)",
  "key": {"BTK phosphorylation": {"system": "BTK phosphorylation", "test": "Immunoblot of phospho-BTK", "format": "cell-based, human", "description": "(§1) Cells were washed in ice-cold PBS then lysed in 1X Cell Lysis Buffer (CST) supplemented with proteinase and phosphatase inhibitors cocktail (Roche). Pierce BCA Protein Assay was used to quantify the protein lysates (Thermo Fisher Scientific, Waltham, MA). For Immunoblotting, 15–25 μg of protein lysate was prepared in 2X or 4X Laemmeli’s sample buffer (Bio-Rad Laboratories, Hercules, CA) and heated for 5 min at 100 °C. Samples were separated on 8% sodium dodecyl sulfate polyacrylamide gel and transferred onto nitrocellulose membrane (Bio-Rad Laboratories, Hercules, CA). The membranes were blocked for 1 h in Blocker BLOTTO Blocking Buffer (Thermo Fisher Scientific, Waltham, MA) or 5% non-fat milk followed by overnight incubation at 4 °C with primary antibody followed by HRP-conjugated secondary antibodies and visualized with chemiluminescent Pierce ECL Substrate (Thermo Fisher Scientific, Waltham, MA) on X-ray films.\nImmunoblot analysis for MOLM-13, MV4-11, and OCI-AML3 AML cell lines (representative of 2-3 independent blots). […] Twenty to 25 μg of total protein lysate was loaded per lane."}, "MOLM-13": {"system": "MOLM-13", "test": "MTS proliferation assay 72 h, MOLM-13", "conditions": "MOLM-13, 1 µM, 72 hours MTS (ibrutinib 1 hour washout)", "procedure": "A total of 5000–30,000 cells from the lines above were treated in a 96-well plate for 72 h. CellTiter 96 Aqueous MTS reagent (Promega, Madison, WI) was added to cells followed by a 3-h incubation at 37 °C, 5% CO2. The absorbance was measured at 490 nm using DTX 880 plate reader and the half maximal inhibitory concentration (IC50) was calculated using GraphPad Prism 7 (GraphPad Software, La Jolla, CA) and SAS/STAT software (SAS v9.4 for Windows, SAS Institute, Inc., Cary, NC). For the MOLM-13 resistant and the Ba/F3-FLT3-ITD/TKD cell lines, cells were treated for 72 h and cell viability was evaluated using MTT assay (Roche Diagnostics. Mannheim. Germany) according to the manufacturer’s instructions."}, "[1]": {"system": "MOLM-13, MV4-11, and OCI-AML3 cell lines", "test": "Annexin/PI apoptosis assay 72 h", "format": "cell-based, human", "conditions": "increasing concentrations of ARQ 531 or 50 nM gilteritinib", "description": "Cells were treated for 72 h then stained for 20 min in 1X Annexin Binding buffer (BD Biosciences, Franklin Lakes, NJ) containing Annexin V-FITC and Propidium Iodine (Leinco Technologies, Fenton, MO). Live and apoptotic cells were measured using FC 500 flow cytometer and analyzed on Kaluza software (Beckman Coulter, Pasadena, CA)."}, "[2]": {"system": "primary AML patient blasts", "test": "MTS proliferation assay, primary AML blasts co-cultured with HS5-GFP stroma cells, 96 h", "format": "cell-based, human", "conditions": "HS5-GFP co-culture", "text": "For in vitro cytotoxicity experiments (Fig. 1b–d), repeated measures models were used to account for correlations among observations from the same experiment. The percentage of live cells was compared at each concentration with DMSO. […] Mixed effects models were used in experiments described in Additional file 1: Table S4 and Fig. 2c to account for correlations within a single patient. Outcome data were first log-transformed to stabilize variances and reduce skewness. For survival experiments (Figs. 5 and 6a), Kaplan-Meier curves were produced and group differences for Fig. 5 and assessed by the log-rank test and for Fig. 6a, p values have been adjusted for multiple comparisons using Holm’s procedure. p values from experiments with multiple endpoints were adjusted for multiple comparisons using either Holm’s procedure or Dunnett’s test (all comparisons against vehicle/DMSO).\n(§2) MTS proliferation assay using a human stroma co-culture assay. […] FLT3 wild-type (WT) samples (red) and FLT3-ITD (black). Colony-Forming Unit-Granulocyte and Macrophage (CFU-GM) assay. […] Number of colonies were counted after 14 days (c)"}, "[3]": {"system": "Ba/F3 FLT3-ITD pMIT SYK-TEL", "procedure": "CellTiter 96 Aqueous MTS reagent (Promega, Madison, WI) was added to cells followed by a 3-h incubation at 37 °C, 5% CO2. The absorbance was measured at 490 nm using DTX 880 plate reader and the half maximal inhibitory concentration (IC50) was calculated using GraphPad Prism 7 (GraphPad Software, La Jolla, CA) and SAS/STAT software (SAS v9.4 for Windows, SAS Institute, Inc., Cary, NC)."}, "[4]": {"system": "phosphorylated SYK (tyrosine 525/526)", "test": "Immunoblot of phospho-SYK Tyr525/526", "format": "cell-based, human", "conditions": "MOLM-13, MV4-11, and OCI-AML3, 10-min treatment", "description": "as §1, with “Cell lines were serum starved overnight followed by a 10-min treatment. Cells” for “Cells”\nFig. 3 ARQ 531 modulates AML pro-survival kinases. Immunoblot analysis for MOLM-13, MV4-11, and OCI-AML3 AML cell lines (representative of 2-3 independent blots). […] Twenty to 25 μg of total protein lysate was loaded per lane. GAPDH, HSP90, or β-Actin were used as loading controls. a, b Modulation of phosphorylated SFK and downstream targets in FLT3-ITD cell lines MOLM-13 and MV-11, respectively. c, d Modulation of phosphorylated SYK and BTK in all three cell lines"}, "[5]": {"system": "primary AML patient blasts", "test": "Colony-Forming Unit-Granulocyte and Macrophage (CFU-GM) assay", "format": "cell-based, human", "conditions": "0.1 µM, colonies counted after 14 days", "description": "Primary AML patient samples were treated and plated at 5000–10,000 cells in 1.1 ml methylcellulose supplemented with recombinant human stem cell factor, interleukin 3, granulocyte colony-stimulating factor, and granulocyte-macrophage colony-stimulating factor (MethoCult™, […] Technologies, Vancouver, Canada) per dish in duplicates. Colonies were counted after 14 days when using primary patient samples.\nas §2"}, "[6]": {"system": "MOLM-13 disseminated AML xenograft", "test": "MOLM-13 disseminated xenograft, ARQ + Ven combination study (NCG mice)", "format": "in vivo", "conditions": "50 mg/kg ARQ 531 and/or 75 mg/kg venetoclax Q.D.P.O from 4 days post-engraftment until ERC; vehicle 25 days", "description": "All experiments were conducted after approval of The Ohio State University Institutional Animal Care and Use Committee. Mice were randomized and enrolled for daily oral gavage (Q.D.P.O) treatment of vehicle or 50 mg/kg ARQ 531. Mice were treated until reaching early removal criteria (ERC) defined as 20% weight loss, lethargy, hind limb paralysis, moribund, anorexia, dehydration, hunched posture, severe diarrhea, breathing difficulties, or any abnormal neurological symptoms. […]\nFig. 7 BCL2 inhibition improves ARQ 531 in vivo activity. a Kaplan–Meier survival curve in the MOLM-13 xenograft after mice were treated with vehicle (N = 9) or 50 mg/kg ARQ 531 Q.D.P.O (N = 9) or 75 mg/kg venetoclax Q.D.P.O (N = 10) or 50 mg/kg ARQ 531 and 75 mg/kg venetoclax combination Q.D.P.O (N = 10) at 4 days post engraftment until ERC. b Noninvasive serial whole body bioluminescence imaging of ventral view to monitor leukemia progression and regression post treatment. Mice were injected with 150 mg/kg Firefly D-Luciferin for evaluation of tumor burden as determined by whole body bioluminescence imaging using IVIS imager"}},
  "note": "Where “and” joins values, the source holds several entries; their conditions need not be identical. Equal values may be shown once.",
  "data": [
    {"smiles": "C=CC(=O)N1CCC[C@@H](n2nc(-c3ccc(Oc4ccccc4)cc3)c3c(N)ncnc32)C1", "note": "[ibrutinib, reference compound]", "values": [
      {"measurement": "effect on BTK phosphorylation", "setting": "BTK phosphorylation", "result": "potently inhibit BTK phosphorylation"},
      {"measurement": "in vitro anti-proliferative activity", "setting": "MOLM-13", "result": "only ARQ 531 demonstrated in vitro anti-proliferative activity"}
    ]},
    {"smiles": "c1cn2cc(-c3ccc4cn[nH]c4c3)nc(Nc3ccc(N4CCOCC4)cc3)c2n1", "note": "[entospletinib, Entospletinib, reference compound]", "values": [
      {"measurement": "in vitro anti-proliferative activity", "setting": "MOLM-13", "result": "potently inhibited proliferation"}
    ]},
    {"smiles": "CCc1nc(C(N)=O)c(Nc2ccc(N3CCC(N4CCN(C)CC4)CC3)c(OC)c2)nc1NC1CCOCC1", "note": "[Gilteritinib, reference compound]", "values": [
      {"measurement": "apoptosis / cytotoxicity (Annexin/PI)", "setting": "[1]", "result": "cytotoxic in the FLT3-ITD cell lines only"},
      {"measurement": "Estimated Ratio of proliferation versus vehicle (DMSO)", "setting": "[2]; 0.005 µM", "result": 1.02},
      {"measurement": "Estimated Ratio of proliferation versus vehicle (DMSO)", "setting": "[2]; 0.01 µM", "result": 1.05},
      {"measurement": "Estimated Ratio of proliferation versus vehicle (DMSO)", "setting": "[2]; 0.05 µM", "result": 1.06},
      {"measurement": "Estimated Ratio of proliferation versus vehicle (DMSO)", "setting": "[2]; 0.1 µM", "result": 1.02},
      {"measurement": "Estimated Ratio of proliferation versus vehicle (DMSO)", "setting": "[2]; 0.5 µM", "result": 0.99},
      {"measurement": "Estimated Ratio of proliferation versus vehicle (DMSO)", "setting": "[2]; 1 µM", "result": 0.87},
      {"measurement": "Estimated Ratio of proliferation versus vehicle (DMSO)", "setting": "[2]; 5 µM", "result": 0.78},
      {"measurement": "Estimated Ratio of proliferation versus vehicle (DMSO)", "setting": "[2]; 10 µM", "result": 0.56},
      {"measurement": "Estimated Ratio of proliferation versus vehicle (DMSO)", "setting": "[2]; 50 µM", "result": 0.54},
      {"measurement": "IC50", "setting": "[3]", "result": "651 nM and 415 nM and 456 nM"},
      {"measurement": "effect on phosphorylated SYK (tyrosine 525/526)", "setting": "[4]", "result": "down-modulated SYK phosphorylation only in the FLT3-ITD cell lines"},
      {"measurement": "Estimated ratio of colony formation vs. DMSO", "setting": "[5]", "result": 0.67}
    ]},
    {"smiles": "CC(C)(C)c1cc(NC(=O)Nc2ccc(-c3cn4c(n3)sc3cc(OCCN5CCOCC5)ccc34)cc2)no1", "note": "[quizartinib, Quizartinib]", "values": [
      {"measurement": "effect on phosphorylated SYK (tyrosine 525/526)", "setting": "[4]", "result": "down-modulated SYK phosphorylation only in the FLT3-ITD cell lines"}
    ]},
    {"smiles": "CO[C@@H]1[C@H](N(C)C(=O)c2ccccc2)C[C@H]2O[C@]1(C)n1c3ccccc3c3c4c(c5c6ccccc6n2c5c31)C(=O)NC4", "note": "[Midostaurin, reference compound]", "values": [
      {"measurement": "effect on phosphorylated SYK (tyrosine 525/526)", "setting": "[4]", "result": "down-modulated SYK phosphorylation only in the FLT3-ITD cell lines"},
      {"measurement": "IC50", "setting": "Ba/F3 FLT3-ITD Parental", "result": "95.4 nM and 63.3 nM"}
    ]},
    {"smiles": "CC1(C)CCC(CN2CCN(c3ccc(C(=O)NS(=O)(=O)c4ccc(NCC5CCOCC5)c([N+](=O)[O-])c4)c(Oc4cnc5[nH]ccc5c4)c3)CC2)=C(c2ccc(Cl)cc2)C1", "note": "[venetoclax, reference compound]", "values": [
      {"measurement": "survival", "setting": "[6]", "result": 24, "unit": "days"}
    ]}
  ]
}
